Data as given in ChEMBL document CHEMBL1201862, “PubChem BioAssay data set” (2004).
Blank lines part the entries; values can stand above or below the compound they belong to. The source made the active and inactive calls.

Key:
[1] = target: T1, Cannabinoid receptor 2 (Homo sapiens, UniProt P34972); test: SAR analysis of agonists of the Cannabinoid Receptor 2 using an Image-Based Assay - Set 2. [Related pubchem assays (depositor defined):AID1961, AID1965]; type: functional
[2] = target: G-protein coupled receptor 55 (Homo sapiens, UniProt Q9Y2T6); test: SAR analysis of selective Agonists of GPR55 using an Image-Based Assay. [Related pubchem assays (depositor defined):AID1961, AID1965]; type: functional
[3] = target: Cannabinoid receptor 1 (Homo sapiens, UniProt P21554); test: SAR analysis of antagonists of the Cannabinoid Receptor 1 using an Image-Based Assay. [Related pubchem assays (depositor defined):AID1961, AID1965]; type: functional
[4] = target: T1, Cannabinoid receptor 2; test: SAR analysis of antagonists of the Cannabinoid Receptor 2 using an Image-Based Assay - Set 2. [Related pubchem assays (depositor defined):AID1961, AID1965]; type: functional
[5] = target: Signal transducer and activator of transcription 1-alpha/beta (Homo sapiens, UniProt P42224); test: STAT3 blockade with qPCR and toxicity readouts – cell-based, STAT1 panel, cytotoxicity, late-stage follow-up, panel member STAT1 Inhibition (AID 2078)
[6] = target: Signal transducer and activator of transcription 3 (Homo sapiens, UniProt P40763); test: STAT3 blockade with qPCR and toxicity readouts – cell-based, STAT1 panel, cytotoxicity, late-stage follow-up, panel member STAT3 Inhibition (AID 2078)
[7] = target: T2, Intestinal-type alkaline phosphatase (Homo sapiens, UniProt P09923); test: Dose Response confirmation of uHTS hits from a small molecule inhibitors of human intestinal alkaline phosphatase via a luminescent assay. [Related pubchem assays (depositor defined):AID2544, AID2574]; type: functional
[8] = target: T2, Intestinal-type alkaline phosphatase; test: human intestinal alkaline phosphatase activators, dose response, biochemical, luminescence, uHTS hits (AID 463120); type: functional
[9] = test system: T-cell; test: loss of vesicle association with mouse CD8+ T cells – mouse 2C CD8+ T cells, flow cytometry, dose response (AID 485284); type: functional
[10] = target: T3, Short transient receptor potential channel 4 (Mus musculus, UniProt Q9QUQ5); test: calcium entry via TRPC4 opening agents – cell-based, HEK293 TRPC4/mu-opioid, Fluo-4 calcium, dose response (AID 434937); type: functional
T3 sequence (Q9QUQ5 whole entry): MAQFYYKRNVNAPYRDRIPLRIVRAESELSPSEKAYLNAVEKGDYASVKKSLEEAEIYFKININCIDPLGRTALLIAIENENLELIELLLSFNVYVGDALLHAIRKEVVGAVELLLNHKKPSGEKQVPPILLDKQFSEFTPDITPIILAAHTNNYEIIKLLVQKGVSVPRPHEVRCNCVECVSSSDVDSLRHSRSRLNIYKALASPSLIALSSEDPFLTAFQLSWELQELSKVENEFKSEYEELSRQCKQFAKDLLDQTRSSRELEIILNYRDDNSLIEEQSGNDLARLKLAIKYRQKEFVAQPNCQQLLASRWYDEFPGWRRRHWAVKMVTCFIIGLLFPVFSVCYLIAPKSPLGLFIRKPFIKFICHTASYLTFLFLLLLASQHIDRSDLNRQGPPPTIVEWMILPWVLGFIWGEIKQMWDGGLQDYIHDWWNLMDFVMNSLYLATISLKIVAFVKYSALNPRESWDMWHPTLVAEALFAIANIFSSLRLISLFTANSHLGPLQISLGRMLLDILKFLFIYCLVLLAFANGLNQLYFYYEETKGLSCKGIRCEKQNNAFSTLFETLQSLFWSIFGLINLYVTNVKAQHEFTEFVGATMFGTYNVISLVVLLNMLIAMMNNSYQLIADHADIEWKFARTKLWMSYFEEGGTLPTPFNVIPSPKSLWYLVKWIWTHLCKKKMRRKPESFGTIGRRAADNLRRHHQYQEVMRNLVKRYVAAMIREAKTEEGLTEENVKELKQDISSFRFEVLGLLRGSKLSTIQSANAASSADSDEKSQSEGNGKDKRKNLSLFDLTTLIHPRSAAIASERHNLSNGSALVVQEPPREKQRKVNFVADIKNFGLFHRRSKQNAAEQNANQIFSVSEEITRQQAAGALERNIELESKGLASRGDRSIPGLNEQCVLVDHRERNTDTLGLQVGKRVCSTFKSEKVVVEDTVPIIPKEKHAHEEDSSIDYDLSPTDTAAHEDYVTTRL

[11] = target: T4, Delta-type opioid receptor (Homo sapiens, UniProt P41143); test: delta opioid receptor blockers – image-based, SAR follow-up (AID 2357); type: functional
[12] = target: T5, Kappa-type opioid receptor (Homo sapiens, UniProt P41145); test: kappa opioid receptor activation potency – imaging, image-based, SAR follow-up (AID 2359); type: functional
[13] = target: T5, Kappa-type opioid receptor; test: kappa opioid receptor blockers, image-based, SAR follow-up (AID 2348); type: functional
[14] = target: T6, Mu-type opioid receptor (Homo sapiens, UniProt P35372); test: mu opioid receptor activators, image-based, SAR follow-up (AID 2352); type: functional
[15] = target: T5, Kappa-type opioid receptor; test: kappa opioid receptor blockers, cell-based, luminescence, beta-arrestin, SAR follow-up (AID 2285); type: functional
[16] = target: T4, Delta-type opioid receptor; test: DOR agonists, SAR follow-up, image-based (AID 2370); type: functional
[17] = target: T6, Mu-type opioid receptor; test: mu opioid receptor blockers – image-based, SAR follow-up (AID 2420); type: functional;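 note: compounds added before stimulation of receptor with agonist DAMGO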

T5 sequence (P41145 whole entry): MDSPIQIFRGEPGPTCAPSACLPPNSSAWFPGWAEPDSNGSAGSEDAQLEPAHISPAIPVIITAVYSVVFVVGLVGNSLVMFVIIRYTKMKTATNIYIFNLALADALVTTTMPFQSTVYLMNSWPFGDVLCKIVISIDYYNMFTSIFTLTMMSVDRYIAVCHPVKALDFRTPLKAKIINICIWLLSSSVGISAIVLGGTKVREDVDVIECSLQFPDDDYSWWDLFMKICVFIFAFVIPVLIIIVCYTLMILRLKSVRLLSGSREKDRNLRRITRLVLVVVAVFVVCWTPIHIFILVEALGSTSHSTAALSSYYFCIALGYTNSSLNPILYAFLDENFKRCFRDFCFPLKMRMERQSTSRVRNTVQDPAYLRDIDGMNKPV
T4 sequence (P41143 whole entry): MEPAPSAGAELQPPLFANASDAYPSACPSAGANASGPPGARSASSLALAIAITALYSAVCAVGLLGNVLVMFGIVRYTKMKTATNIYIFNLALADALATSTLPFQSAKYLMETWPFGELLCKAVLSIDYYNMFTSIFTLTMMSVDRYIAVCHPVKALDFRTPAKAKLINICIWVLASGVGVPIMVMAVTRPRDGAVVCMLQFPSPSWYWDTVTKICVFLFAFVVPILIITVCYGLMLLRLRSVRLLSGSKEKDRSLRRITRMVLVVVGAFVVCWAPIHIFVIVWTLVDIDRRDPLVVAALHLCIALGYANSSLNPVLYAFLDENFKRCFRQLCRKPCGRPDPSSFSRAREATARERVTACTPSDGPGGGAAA
T6 sequence (P35372 whole entry): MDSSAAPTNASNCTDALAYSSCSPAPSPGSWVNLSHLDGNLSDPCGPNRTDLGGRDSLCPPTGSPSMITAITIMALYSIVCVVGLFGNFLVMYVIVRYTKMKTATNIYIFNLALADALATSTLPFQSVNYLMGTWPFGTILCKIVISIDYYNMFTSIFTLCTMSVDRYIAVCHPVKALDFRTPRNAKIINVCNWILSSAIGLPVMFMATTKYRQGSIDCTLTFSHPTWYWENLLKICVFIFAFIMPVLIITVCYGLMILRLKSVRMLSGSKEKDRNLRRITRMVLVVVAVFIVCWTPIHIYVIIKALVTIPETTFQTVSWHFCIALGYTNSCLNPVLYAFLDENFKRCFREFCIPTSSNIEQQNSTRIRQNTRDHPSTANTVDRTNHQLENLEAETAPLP
T2 sequence (P09923 whole entry): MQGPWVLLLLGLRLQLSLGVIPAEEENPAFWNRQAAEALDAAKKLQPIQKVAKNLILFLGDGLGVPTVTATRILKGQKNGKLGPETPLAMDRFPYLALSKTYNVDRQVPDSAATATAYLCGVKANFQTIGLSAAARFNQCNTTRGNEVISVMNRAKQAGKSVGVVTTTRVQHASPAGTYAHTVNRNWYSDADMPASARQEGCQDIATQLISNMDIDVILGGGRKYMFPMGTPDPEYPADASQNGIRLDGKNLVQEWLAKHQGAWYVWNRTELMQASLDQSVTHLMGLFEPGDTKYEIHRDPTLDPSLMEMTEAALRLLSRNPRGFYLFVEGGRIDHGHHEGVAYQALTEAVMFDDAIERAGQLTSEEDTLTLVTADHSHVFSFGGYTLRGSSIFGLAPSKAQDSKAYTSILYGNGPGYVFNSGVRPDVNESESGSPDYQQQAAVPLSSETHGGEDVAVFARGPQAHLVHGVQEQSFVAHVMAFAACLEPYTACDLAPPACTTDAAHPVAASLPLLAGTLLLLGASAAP
T1 sequence (P34972 whole entry): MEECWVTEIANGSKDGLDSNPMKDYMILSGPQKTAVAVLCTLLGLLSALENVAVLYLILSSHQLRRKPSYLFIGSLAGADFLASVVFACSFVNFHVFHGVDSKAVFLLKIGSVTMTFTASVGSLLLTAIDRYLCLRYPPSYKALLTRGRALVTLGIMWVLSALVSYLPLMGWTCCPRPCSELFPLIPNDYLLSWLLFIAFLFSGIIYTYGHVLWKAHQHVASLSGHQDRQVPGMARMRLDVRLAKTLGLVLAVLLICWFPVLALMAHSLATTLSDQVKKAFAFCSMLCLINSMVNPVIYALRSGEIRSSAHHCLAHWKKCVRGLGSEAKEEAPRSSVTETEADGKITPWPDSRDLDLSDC
Chain of G-protein coupled receptor 55 (Q9Y2T6 whole entry): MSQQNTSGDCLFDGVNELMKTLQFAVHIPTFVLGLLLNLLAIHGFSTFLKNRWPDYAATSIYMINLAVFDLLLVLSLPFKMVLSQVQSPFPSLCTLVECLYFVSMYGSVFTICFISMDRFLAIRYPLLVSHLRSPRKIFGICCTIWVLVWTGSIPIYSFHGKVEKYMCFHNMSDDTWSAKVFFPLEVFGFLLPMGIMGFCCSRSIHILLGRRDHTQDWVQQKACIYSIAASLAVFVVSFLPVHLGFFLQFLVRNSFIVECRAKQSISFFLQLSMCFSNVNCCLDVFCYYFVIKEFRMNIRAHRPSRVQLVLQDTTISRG
Chain of Cannabinoid receptor 1 (P21554 whole entry): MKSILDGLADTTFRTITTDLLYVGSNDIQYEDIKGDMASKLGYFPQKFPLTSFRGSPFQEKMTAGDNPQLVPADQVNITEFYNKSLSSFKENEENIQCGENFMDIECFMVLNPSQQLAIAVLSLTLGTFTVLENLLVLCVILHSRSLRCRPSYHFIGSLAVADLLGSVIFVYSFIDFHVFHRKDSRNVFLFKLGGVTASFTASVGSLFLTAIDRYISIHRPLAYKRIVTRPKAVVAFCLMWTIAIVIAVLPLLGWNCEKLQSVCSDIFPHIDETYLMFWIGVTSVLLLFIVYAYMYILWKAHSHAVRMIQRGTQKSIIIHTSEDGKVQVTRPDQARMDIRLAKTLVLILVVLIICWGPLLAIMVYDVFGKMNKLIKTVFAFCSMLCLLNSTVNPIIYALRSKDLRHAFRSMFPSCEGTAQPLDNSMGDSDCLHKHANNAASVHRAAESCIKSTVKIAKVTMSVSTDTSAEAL
Chain of Signal transducer and activator of transcription 1-alpha/beta (P42224 whole entry): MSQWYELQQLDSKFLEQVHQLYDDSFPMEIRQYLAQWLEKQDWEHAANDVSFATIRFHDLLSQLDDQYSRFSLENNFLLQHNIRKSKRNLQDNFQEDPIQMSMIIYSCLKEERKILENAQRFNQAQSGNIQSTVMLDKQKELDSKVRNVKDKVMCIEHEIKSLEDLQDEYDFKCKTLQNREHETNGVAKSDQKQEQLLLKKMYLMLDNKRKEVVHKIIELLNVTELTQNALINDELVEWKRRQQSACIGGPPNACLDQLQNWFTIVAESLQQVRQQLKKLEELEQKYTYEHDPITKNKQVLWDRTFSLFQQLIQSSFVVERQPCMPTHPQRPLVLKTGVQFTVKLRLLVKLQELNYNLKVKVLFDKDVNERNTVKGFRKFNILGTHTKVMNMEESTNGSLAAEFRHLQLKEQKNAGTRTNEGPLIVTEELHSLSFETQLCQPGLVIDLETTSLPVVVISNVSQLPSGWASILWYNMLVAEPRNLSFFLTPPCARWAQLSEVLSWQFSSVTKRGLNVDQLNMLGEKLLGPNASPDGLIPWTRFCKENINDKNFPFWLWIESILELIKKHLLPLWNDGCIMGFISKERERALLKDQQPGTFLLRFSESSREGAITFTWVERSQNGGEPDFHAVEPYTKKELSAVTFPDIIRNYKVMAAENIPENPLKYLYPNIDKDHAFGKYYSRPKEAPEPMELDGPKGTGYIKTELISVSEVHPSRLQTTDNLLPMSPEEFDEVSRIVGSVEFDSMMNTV
Chain of Signal transducer and activator of transcription 3 (P40763 whole entry): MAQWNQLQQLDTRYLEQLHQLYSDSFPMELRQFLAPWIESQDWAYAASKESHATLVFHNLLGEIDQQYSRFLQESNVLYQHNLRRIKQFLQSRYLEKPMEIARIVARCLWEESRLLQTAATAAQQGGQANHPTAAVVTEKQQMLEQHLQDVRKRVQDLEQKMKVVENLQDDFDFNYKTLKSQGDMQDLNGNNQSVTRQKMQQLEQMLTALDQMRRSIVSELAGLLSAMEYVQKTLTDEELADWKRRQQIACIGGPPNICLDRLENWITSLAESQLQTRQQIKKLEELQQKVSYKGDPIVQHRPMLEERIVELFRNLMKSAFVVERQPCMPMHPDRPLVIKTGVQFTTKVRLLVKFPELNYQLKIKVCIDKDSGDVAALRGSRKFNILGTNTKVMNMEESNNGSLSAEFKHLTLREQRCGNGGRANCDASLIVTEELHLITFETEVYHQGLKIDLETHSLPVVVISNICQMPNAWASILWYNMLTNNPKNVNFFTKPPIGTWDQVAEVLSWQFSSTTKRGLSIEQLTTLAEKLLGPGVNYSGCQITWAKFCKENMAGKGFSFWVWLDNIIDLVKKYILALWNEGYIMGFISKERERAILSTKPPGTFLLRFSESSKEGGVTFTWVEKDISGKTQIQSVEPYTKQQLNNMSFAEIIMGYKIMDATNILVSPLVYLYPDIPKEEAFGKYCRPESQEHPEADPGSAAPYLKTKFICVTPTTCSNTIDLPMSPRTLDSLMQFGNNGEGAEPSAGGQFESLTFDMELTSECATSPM

EC50 [1]: > 32 µM (inactive) | EC50 [2]: 0.658 µM (active) | IC50 [3]: > 32 µM (inactive) | IC50 [4]: > 32 µM (inactive)
Compound: COc1ccc(-c2csc(NC(=O)CSc3nnc4c(C)cc5ccccc5n34)n2)cc1

Compound: c1ccc(CC2CCN(c3ncnc4scc(-c5ccccc5)c34)CC2)cc1
IC50 [5]: > 55.7 µM (inactive) | IC50 [6]: > 55.7 µM (inactive)

IC50 [7]: > 100 µM (inactive) | EC50 [8]: > 100 µM (inactive)
Compound: CC(=O)c1ccc(NC(=O)C2CCCN2S(=O)(=O)c2cccs2)cc1 (configuration not stated)

Compound: CCCCn1c(N)c(N(CCOC)C(=O)c2ccc(-c3ccc([N+](=O)[O-])cc3)o2)c(=O)[nH]c1=O
EC50 [9]: 23.9 µM (inactive)

EC50 [10]: 0.596 µM (active) | IC50 [11]: > 32 µM (inactive) | EC50 [12]: > 32 µM (inactive) | IC50 [13]: 4.73 µM (active) | EC50 [14]: > 32 µM (inactive) | IC50 [15]: 6.72 µM (active) | EC50 [16]: 1.6 µM (active) | IC50 [17]: 1.92 µM (active)
Compound: CC(=O)c1ccc(S(=O)(=O)NCc2ccc(C(=O)NCC(c3ccccc3)N(C)C)cc2)cc1 (configuration not stated)
